The record followed here is BindingDB's records for PubMed 8391122 (Merck Sharp & Dohme Research Laboratories, 1993).

Each structure is given as a SMILES string.

As a reminder, the Ki is a measure of affinity in units of concentration, obtained from inhibition or displacement. A high value points to weaker binding.

The target in assay [1] is T1, Gamma-aminobutyric acid receptor subunit alpha-1 (Homo sapiens, UniProt P14867).
T1 sequence (P14867 whole entry): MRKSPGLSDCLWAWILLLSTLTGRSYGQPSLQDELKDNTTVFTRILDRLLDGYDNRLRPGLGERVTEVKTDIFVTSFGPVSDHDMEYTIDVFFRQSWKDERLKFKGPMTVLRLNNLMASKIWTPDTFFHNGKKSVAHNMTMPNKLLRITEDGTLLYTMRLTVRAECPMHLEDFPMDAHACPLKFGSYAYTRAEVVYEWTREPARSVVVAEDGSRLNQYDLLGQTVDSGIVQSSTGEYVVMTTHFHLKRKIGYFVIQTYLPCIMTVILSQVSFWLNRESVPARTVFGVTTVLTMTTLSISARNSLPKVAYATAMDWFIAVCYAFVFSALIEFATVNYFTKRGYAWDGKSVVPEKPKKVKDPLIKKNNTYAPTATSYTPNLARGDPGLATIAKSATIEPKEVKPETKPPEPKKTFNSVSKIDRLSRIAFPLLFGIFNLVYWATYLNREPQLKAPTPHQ

The target in assay [2] is T2, Gamma-aminobutyric acid receptor subunit alpha-3 (Homo sapiens, UniProt P34903).
T2 sequence (P34903 whole entry): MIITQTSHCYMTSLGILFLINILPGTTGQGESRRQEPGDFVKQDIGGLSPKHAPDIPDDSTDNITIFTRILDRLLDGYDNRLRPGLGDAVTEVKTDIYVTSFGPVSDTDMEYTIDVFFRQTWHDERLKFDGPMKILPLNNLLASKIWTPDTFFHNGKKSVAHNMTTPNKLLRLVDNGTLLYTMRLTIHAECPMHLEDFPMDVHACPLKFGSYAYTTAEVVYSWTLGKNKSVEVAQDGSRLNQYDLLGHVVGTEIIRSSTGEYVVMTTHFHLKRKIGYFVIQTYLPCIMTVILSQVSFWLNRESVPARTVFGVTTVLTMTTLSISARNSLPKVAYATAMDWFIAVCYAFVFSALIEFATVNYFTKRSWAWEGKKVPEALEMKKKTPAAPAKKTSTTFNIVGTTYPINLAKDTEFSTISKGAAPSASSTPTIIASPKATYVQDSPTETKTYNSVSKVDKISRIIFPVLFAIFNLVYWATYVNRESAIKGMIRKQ

In assay [3] the target is T3, Gamma-aminobutyric acid receptor subunit alpha-5 (Homo sapiens, UniProt P31644).
T3 sequence (P31644 whole entry): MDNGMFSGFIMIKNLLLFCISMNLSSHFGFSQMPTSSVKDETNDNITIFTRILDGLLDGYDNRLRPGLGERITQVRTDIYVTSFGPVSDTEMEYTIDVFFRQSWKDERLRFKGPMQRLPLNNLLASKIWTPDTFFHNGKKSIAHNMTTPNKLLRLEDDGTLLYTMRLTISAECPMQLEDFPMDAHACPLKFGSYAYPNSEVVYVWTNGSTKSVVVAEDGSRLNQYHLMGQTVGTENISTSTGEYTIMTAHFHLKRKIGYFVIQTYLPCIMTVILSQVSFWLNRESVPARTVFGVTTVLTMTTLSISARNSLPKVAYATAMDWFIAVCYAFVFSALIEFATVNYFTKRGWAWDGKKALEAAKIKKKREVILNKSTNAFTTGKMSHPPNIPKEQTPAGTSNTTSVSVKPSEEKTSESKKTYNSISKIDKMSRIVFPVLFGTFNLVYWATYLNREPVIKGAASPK

The target in assay [4] is T4, Gamma-aminobutyric acid receptor subunit alpha-2 (Homo sapiens, UniProt P47869).
T4 sequence (P47869 whole entry): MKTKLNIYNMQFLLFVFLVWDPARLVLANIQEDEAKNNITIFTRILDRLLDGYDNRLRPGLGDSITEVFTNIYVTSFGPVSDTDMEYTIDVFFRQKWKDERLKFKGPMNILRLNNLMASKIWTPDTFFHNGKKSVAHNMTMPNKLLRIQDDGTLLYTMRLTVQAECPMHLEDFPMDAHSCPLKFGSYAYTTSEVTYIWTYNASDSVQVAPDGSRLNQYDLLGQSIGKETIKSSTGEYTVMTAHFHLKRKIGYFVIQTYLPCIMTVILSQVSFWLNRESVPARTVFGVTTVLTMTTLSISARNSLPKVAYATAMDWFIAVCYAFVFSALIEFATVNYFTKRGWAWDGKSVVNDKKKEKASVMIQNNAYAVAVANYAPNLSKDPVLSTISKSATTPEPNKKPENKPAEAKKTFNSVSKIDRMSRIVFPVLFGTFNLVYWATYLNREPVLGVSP

For `CC(C)c1nc(-c2ncn3c2CN(C)C(=O)c2c(Cl)cccc2-3)no1` [FG 8205], the Ki was 2.3 nM in assay [1], 6.4 nM in assay [2], 6.4 nM in assay [3] and 3.7 nM in assay [4].

As for `COCc1c(C(=O)OC(C)C)ncc2[nH]c3ccc(OCc4ccccc4)cc3c12`, the inhibition constant (Ki) in assay [2] came out at 7.1 nM; in assay [3] it was 8.4 nM; in assay [4], 4.4 nM.

In the case of `CC(C)(C)OC(=O)c1ncn2c1C1CCCN1C(=O)c1c(Br)cccc1-2` (stereo not given) [8-Bromo-7-oxo-3b,4,5,6-tetrahydro-7H-2,6a,11b-triaza-benzo[g]cyclopenta[e]azulene-3-carboxylic acid tert-butyl ester], the Ki was determined as 1.2 nM in assay [1], 1.3 nM in assay [2], 2.4 nM in assay [3] and 1.2 nM in assay [4].

Regarding `COC(=O)c1cc2c(cn1)[nH]c1ccccc12`, the Ki in assay [1] is 2.2 nM; in assay [2], 9.2 nM; in assay [3] it was 76.4 nM; in assay [4], 6.5 nM.

As for `Cc1nnc2ccc(-c3cccc(C(F)(F)F)c3)nn12`, the Ki in assay [1] came to 290 nM; in assay [2] it was 3140 nM; in assay [3], 1150 nM; in assay [4] it was 2900 nM.

With `Cc1nnc2n1-c1ccc(Cl)cc1C(c1ccccc1Cl)=NC2` [Halcion], the affinity in assay [2], expressed as Ki, was 3 nM.

As to `Cc1ccc(-c2nc3ccc(C)cn3c2CC(=O)N(C)C)cc1` [Ambien], the Ki in assay [3] was more than 10000 nM.

Consider `CCOC(=O)c1ncn2c1CN(C)C(=O)c1cc(N=[N+]=[N-])ccc1-2` [RO-154513], for which the Ki in assay [1] was 10 nM; in assay [2], 7.8 nM; in assay [3], 0.7 nM; in assay [4] it was 10.4 nM.
